Results taken from PubChem BioAssay (NCI).
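Dose response: 5 concentrations. Exposure: 48 h. Format: 96-well plates. Endpoint: linear interpolation; highest concentration if not reached. TGI denotes the concentration required for complete inhibition of growth.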

Experiments:
Assay in all cases: NCI-60 cell line screen, 48 h
[1] = test system: A498 renal
[2] = test system: ACHN renal
[3] = test system: CAKI-1 renal
[4] = test system: CCRF-CEM leukemia
[5] = test system: COLO 205 colon
[6] = test system: DLD-1 colon
[7] = test system: DMS 114 small cell lung
[8] = test system: DMS 273 small cell lung
[9] = test system: EKVX NSCLC
[10] = test system: HCT-15 colon
[11] = test system: HL-60(TB) leukemia
[12] = test system: HOP-18 NSCLC
[13] = test system: HOP-92 NSCLC
[14] = test system: HT29 colon
[15] = test system: IGROV1 ovarian
[16] = test system: K-562 leukemia
[17] = test system: KM20L2 colon
[18] = test system: LOX IMVI melanoma
[19] = test system: LXFL 529 NSCLC
[20] = test system: M14 melanoma
[21] = test system: M19-MEL melanoma
[22] = test system: MALME-3M melanoma
[23] = test system: MOLT-4 leukemia
[24] = test system: NCI-H226 lung
[25] = test system: NCI-H23 lung
[26] = test system: NCI-H460 lung
[27] = test system: NCI-H522 lung
[28] = test system: OVCAR-3 ovarian
[29] = test system: OVCAR-8 ovarian
[30] = test system: RPMI-8226 leukemia
[31] = test system: RXF-631 renal
[32] = test system: SF-268 CNS
[33] = test system: SF-295 CNS
[34] = test system: SF-539 CNS
[35] = test system: SK-MEL-2 melanoma
[36] = test system: SK-MEL-28 melanoma
[37] = test system: SK-MEL-5 melanoma
[38] = test system: SK-OV-3 ovarian
[39] = test system: SN12C renal
[40] = test system: SNB-19 CNS
[41] = test system: SNB-75 CNS
[42] = test system: SNB-78 CNS
[43] = test system: SW-620 colon
[44] = test system: TK-10 renal
[45] = test system: U251 CNS
[46] = test system: UACC-62 melanoma
[47] = test system: UO-31 renal
[48] = test system: A549 NSCLC
[49] = test system: HCC-2998 colon
[50] = test system: HCT-116 colon
[51] = test system: HOP-62 NSCLC
[52] = test system: KM12 colon
[53] = test system: OVCAR-4 ovarian
[54] = test system: OVCAR-5 ovarian
[55] = test system: RXF 393 renal
[56] = test system: SR leukemia
[57] = test system: UACC-257 melanoma
[58] = test system: 786-0 renal

CCOCc1cc(=O)c2c(O)cc3c(c2o1)CCC(C)(C)O3
TGI [1]: > 100 µM
TGI [2]: > 100 µM
TGI [3]: > 100 µM
TGI [4]: > 100 µM
TGI [5]: > 100 µM
TGI [6]: > 100 µM
TGI [7]: > 100 µM
TGI [8]: > 100 µM
TGI [9]: > 100 µM
TGI [10]: > 100 µM
TGI [11]: > 100 µM
TGI [12]: > 100 µM
TGI [13]: > 100 µM
TGI [14]: > 100 µM
TGI [15]: > 100 µM
TGI [16]: > 100 µM
TGI [17]: > 100 µM
TGI [18]: > 100 µM
TGI [19]: > 100 µM
TGI [20]: > 100 µM
TGI [21]: > 100 µM
TGI [22]: > 100 µM
TGI [23]: > 100 µM
TGI [24]: > 100 µM
TGI [25]: > 100 µM
TGI [26]: > 100 µM
TGI [27]: > 100 µM
TGI [28]: > 100 µM
TGI [29]: > 100 µM
TGI [30]: > 100 µM
TGI [31]: > 100 µM
TGI [32]: > 100 µM
TGI [33]: > 100 µM
TGI [34]: > 100 µM
TGI [35]: > 100 µM
TGI [36]: > 100 µM
TGI [37]: > 100 µM
TGI [38]: > 100 µM
TGI [39]: > 100 µM
TGI [40]: > 100 µM
TGI [41]: > 100 µM
TGI [42]: > 100 µM
TGI [43]: > 100 µM
TGI [44]: > 100 µM
TGI [45]: > 100 µM
TGI [46]: > 100 µM
TGI [47]: > 100 µM

Cc1ccccc1OCC(COC(=O)Nc1ccccc1)OC(=O)Nc1ccccc1 (stereo unspecified)
TGI [1]: > 100 µM
TGI [48]: > 100 µM
TGI [2]: > 100 µM
TGI [3]: > 100 µM
TGI [4]: > 100 µM
TGI [5]: > 100 µM
TGI [6]: > 100 µM
TGI [7]: > 100 µM
TGI [8]: > 100 µM
TGI [9]: > 100 µM
TGI [49]: > 100 µM
TGI [50]: > 100 µM
TGI [10]: > 100 µM
TGI [11]: 68.7 µM
TGI [12]: 86.6 µM
TGI [51]: > 100 µM
TGI [13]: 38.5 µM
TGI [14]: > 100 µM
TGI [15]: > 100 µM
TGI [16]: 27.8 µM
TGI [52]: > 100 µM
TGI [17]: > 100 µM
TGI [18]: 55.9 µM
TGI [19]: > 100 µM
TGI [20]: > 100 µM
TGI [21]: > 100 µM
TGI [22]: > 100 µM
TGI [23]: > 100 µM
TGI [24]: > 100 µM
TGI [25]: > 100 µM
TGI [26]: > 100 µM
TGI [27]: > 100 µM
TGI [28]: > 100 µM
TGI [53]: > 100 µM
TGI [54]: > 100 µM
TGI [29]: > 100 µM
TGI [30]: > 100 µM
TGI [55]: 43.5 µM
TGI [31]: > 100 µM
TGI [32]: > 100 µM
TGI [33]: > 100 µM
TGI [34]: 15.4 µM
TGI [35]: > 100 µM
TGI [36]: > 100 µM
TGI [37]: > 100 µM
TGI [38]: > 100 µM
TGI [39]: > 100 µM
TGI [40]: 89.4 µM
TGI [41]: 38.3 µM
TGI [42]: 79 µM
TGI [56]: > 100 µM
TGI [43]: > 100 µM
TGI [44]: > 100 µM
TGI [45]: > 100 µM
TGI [57]: > 100 µM
TGI [46]: > 100 µM
TGI [47]: > 100 µM

C/C(=N\NC(C)(C)C)c1sc(-c2nc(C)c(/C(C)=N/NC(C)(C)C)s2)nc1C
TGI [58]: > 100 µM
TGI [1]: > 100 µM
TGI [48]: > 100 µM
TGI [2]: > 100 µM
TGI [3]: > 100 µM
TGI [4]: > 100 µM
TGI [5]: > 100 µM
TGI [6]: > 100 µM
TGI [7]: > 100 µM
TGI [8]: > 100 µM
TGI [9]: > 100 µM
TGI [49]: > 100 µM
TGI [50]: > 100 µM
TGI [10]: > 100 µM
TGI [11]: > 100 µM
TGI [12]: > 100 µM
TGI [13]: > 100 µM
TGI [14]: > 100 µM
TGI [15]: > 100 µM
TGI [16]: > 100 µM
TGI [17]: > 100 µM
TGI [18]: > 100 µM
TGI [19]: > 100 µM
TGI [20]: > 100 µM
TGI [21]: > 100 µM
TGI [22]: > 100 µM
TGI [23]: > 100 µM
TGI [24]: > 100 µM
TGI [25]: > 100 µM
TGI [27]: > 100 µM
TGI [28]: > 100 µM
TGI [53]: > 100 µM
TGI [29]: > 100 µM
TGI [30]: > 100 µM
TGI [55]: > 100 µM
TGI [31]: > 100 µM
TGI [32]: > 100 µM
TGI [33]: > 100 µM
TGI [34]: > 100 µM
TGI [36]: > 100 µM
TGI [37]: > 100 µM
TGI [38]: > 100 µM
TGI [39]: > 100 µM
TGI [40]: > 100 µM
TGI [41]: > 100 µM
TGI [42]: > 100 µM
TGI [56]: > 100 µM
TGI [43]: > 100 µM
TGI [45]: > 100 µM
TGI [57]: > 100 µM
TGI [46]: > 100 µM
TGI [47]: > 100 µM
